BigSolDB 2.1

O=C1Nc2ccccc2C1=O
Settings | solubility (mole fraction)
in 1,4-dioxane, 293.15 K | 0.0162
in 1,4-dioxane, 298.15 K | 0.0188
in 1,4-dioxane, 303.15 K | 0.0218
in 1,4-dioxane, 308.15 K | 0.0252
in 1,4-dioxane, 313.15 K | 0.029
in 1,4-dioxane, 318.15 K | 0.0331
in 1,4-dioxane, 323.15 K | 0.0378
in 1,4-dioxane, 328.15 K | 0.0428
in 1,4-dioxane, 333.15 K | 0.0484
in DMF, 283.15 K | 0.127
in DMF, 288.25 K | 0.135
in DMF, 293.25 K | 0.143
in DMF, 298.15 K | 0.151
in DMF, 303.15 K | 0.16
in DMF, 308.25 K | 0.17
in DMF, 313.25 K | 0.179
in DMF, 318.45 K | 0.19
in DMF, 323.15 K | 0.198
in DMF, 328.15 K | 0.209
in DMF, 333.15 K | 0.218
in THF, 289.85 K | 0.0197
in THF, 297.15 K | 0.0234
in THF, 301.15 K | 0.0254
in THF, 305.15 K | 0.028
in THF, 308.95 K | 0.0301
in THF, 314.05 K | 0.0335
in THF, 318.35 K | 0.0367
in THF, 323.15 K | 0.0399
in acetone, 287.25 K | 0.0109
in acetone, 292.75 K | 0.0125
in acetone, 298.45 K | 0.014
in acetone, 302.65 K | 0.0158
in acetone, 308.35 K | 0.0174
in acetone, 312.65 K | 0.0193
in acetone, 318.15 K | 0.0217
in acetone, 323.35 K | 0.0241
in acetonitrile, 283.15 K | 0.0042
in acetonitrile, 288.35 K | 0.00498
in acetonitrile, 294.65 K | 0.00608
in acetonitrile, 298.15 K | 0.00675
in acetonitrile, 303.15 K | 0.00789
in acetonitrile, 308.15 K | 0.00893
in acetonitrile, 313.15 K | 0.0103
in acetonitrile, 318.15 K | 0.0118
in acetonitrile, 323.15 K | 0.0136
in dichloromethane, 278.15 K | 0.000788
in dichloromethane, 282.35 K | 0.000876
in dichloromethane, 286.25 K | 0.000982
in dichloromethane, 290.55 K | 0.0011
in dichloromethane, 293.15 K | 0.0012
in dichloromethane, 296.95 K | 0.00132
in dichloromethane, 299.85 K | 0.00141
in dichloromethane, 303.25 K | 0.00153
in dichloromethane, 307.65 K | 0.0017
in ethyl acetate, 288.15 K | 0.00421
in ethyl acetate, 293.35 K | 0.0048
in ethyl acetate, 298.25 K | 0.00565
in ethyl acetate, 303.65 K | 0.00637
in ethyl acetate, 308.65 K | 0.00733
in ethyl acetate, 313.35 K | 0.00822
in ethyl acetate, 318.15 K | 0.0092
in ethyl acetate, 323.35 K | 0.0103
in toluene, 288.15 K | 0.000588
in toluene, 293.15 K | 0.000637
in toluene, 298.15 K | 0.000685
in toluene, 303.15 K | 0.000714
in toluene, 308.15 K | 0.000771
in toluene, 313.15 K | 0.000819
in toluene, 318.15 K | 0.000884
in toluene, 323.15 K | 0.000926
